Article PMC6201908, “Affinity, potency, efficacy, and selectivity of neurokinin A analogs at human recombinant NK2 and NK1 receptors” (PLoS ONE, 2018)
Read-outs that look alike come from different tables or passages of the source. Non-standard residues stand in square brackets, D forms with d. Residues, ends and D or L forms follow the SMILES beside them. NMeL = CN[C@@H](CC(C)C)C(=O)O; Nle = CCCC[C@H](N)C(=O)O; βAla = NCCC(=O)O

How the values were obtained:
[1] = target: T1, human recombinant NK1 receptors (Homo sapiens, UniProt P25103); test: cell-based
T1 sequence (P25103 whole entry): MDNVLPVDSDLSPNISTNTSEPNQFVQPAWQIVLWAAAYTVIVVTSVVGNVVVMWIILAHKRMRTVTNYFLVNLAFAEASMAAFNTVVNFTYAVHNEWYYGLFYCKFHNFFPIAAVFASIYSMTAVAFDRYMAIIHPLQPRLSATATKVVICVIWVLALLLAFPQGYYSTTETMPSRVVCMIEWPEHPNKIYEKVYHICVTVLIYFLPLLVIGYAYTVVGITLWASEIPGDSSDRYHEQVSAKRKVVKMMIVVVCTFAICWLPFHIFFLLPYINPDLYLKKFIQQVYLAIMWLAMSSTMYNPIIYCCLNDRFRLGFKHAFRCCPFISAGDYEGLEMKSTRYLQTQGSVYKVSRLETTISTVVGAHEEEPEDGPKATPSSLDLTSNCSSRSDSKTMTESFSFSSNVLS
Experimental: (§1) Human recombinant NK2 and NK1 receptors were generated using stably transfected CHO cells (CHO-hNK2 and CHO-hNK1, respectively). Human NK2 or NK1 receptor expressing vectors from Genecopeia (Rockville, USA) were transfected in CHO cells using the standard FuGENE protocol and cells were selected using 450 μg/mL geneticin (G418). Clones expressing the receptors were selected by functional coupling to calcium using FLIPR and a single clone for each receptor subtype was selected for expansion and stable cell line generation. Cells were cultured in a humidified incubator with 5% CO2 in F12K medium containing 10% heat inactivated FBS and 450 μg/mL geneticin and passaged on reaching 80–90% confluence.
(§2) The agonist efficacy of the test compounds at recombinant human NK1 or NK2 receptors expressed in CHO cells was assessed by measuring the intracellular calcium response using the calcium-sensitive dye Fluo-4 AM (Eugene, OR, USA) and a Fluorometric Imaging Plate Reader (FLIPR, Molecular Devices, CA, USA). CHO-hNK1 and CHO-hNK2 cells were seeded into black walled clear-bottom 384-well plates at a density of 10,000 and 15,000 cells per well in 50 μL culture media, respectively, and grown overnight at 37°C in a humidified CO2-incubator. Cells were washed in washing buffer using an EMBLA 384 plate washer, leaving 20 μL of buffer per well after the final aspiration. Cells were then incubated at 37°C with the cytoplasmic Ca^2+ indicator Fluo-4 AM (final concentration 1 μM) in assay buffer (20 mM HEPES, 145 mM NaCl, 5 mM KCl, 5.5 mM glucose, 1 mM MgCl2 and 2 mM CaCl2, pH 7.4, 0.05% Pluronic F-127 and 0.1% BSA) containing 2.5 mM probenecid for 45–60 min (cell loading). Cells were then washed 3 times in washing buffer (20 mM HEPES, 145 mM NaCl, 5 mM KCl, 5.5 mM glucose, 1 mM MgCl2 and 2 mM CaCl2, pH 7.4 and 2.5 mM probenecid) using an EMBLA 384 plate washer, leaving 30 μL of buffer in each well after the last wash. Loaded cell plates were transferred to the FLIPR and calcium responses were monitored as described below. […] Concentration response curves of test compounds were generated in duplicate on at least two different occasions from the same stock solutions. Test solutions were prepared from 10 mM stock solutions in DMSO and 1 μL of each solution was stamped into V-bottom assay plates containing 49 μL assay buffer. The final concentration of DMSO was 0.5% in each well.

[2] = target: T2, human recombinant NK2 receptors (Homo sapiens, UniProt P21452); test: cell-based
T2 sequence (P21452 1-398): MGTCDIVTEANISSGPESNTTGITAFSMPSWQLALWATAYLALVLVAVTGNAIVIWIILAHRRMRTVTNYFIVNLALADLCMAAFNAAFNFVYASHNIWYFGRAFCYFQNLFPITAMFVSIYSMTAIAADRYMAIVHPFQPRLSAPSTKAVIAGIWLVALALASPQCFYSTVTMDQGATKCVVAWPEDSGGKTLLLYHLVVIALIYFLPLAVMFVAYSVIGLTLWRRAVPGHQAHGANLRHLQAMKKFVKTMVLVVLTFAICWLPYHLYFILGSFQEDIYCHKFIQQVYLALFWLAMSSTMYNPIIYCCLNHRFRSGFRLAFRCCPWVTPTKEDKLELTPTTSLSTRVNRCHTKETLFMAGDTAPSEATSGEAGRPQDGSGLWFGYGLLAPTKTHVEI
Experimental: as §1, §2

[3] = target: T2, human recombinant NK2 receptors; test: Displacement of [^125I]-NKA binding to CHO-hNK2 membranes
[4] = target: T1, human recombinant NK1 receptors; test: Displacement of [^3H]-Septide binding to CHO-hNK1 membranes (septide site)
Experimental: Protein expression was induced by addition of 5 mM sodium butyrate to the culture medium. […] The cell suspension was collected, placed on ice and centrifuged for 5 min at 4°C and 1200 rpm in a Beckman GS6R centrifuge. After removal of the supernatant the cell pellet was washed and collected by re-suspension in PBS and centrifugation. The final pellet was weighed and frozen at -80°C until use. Frozen pellets were thawed and homogenized in 10 volumes (w/v) of membrane preparation buffer (50 mM HEPES pH 7.4, 1 mM EDTA, 50 μg/mL bacitracin and protease inhibitors) using a Polytron Ultraturrax (twice for 15 s per cycle). The homogenate was centrifuged for 20 min at 4°C and 18500 rpm in a SL-50T Sorvall rotor and the pellet was re-suspended in membrane preparation buffer and re-homogenized as before. After centrifugation for 20 min at 4°C and 18500 rpm, the pellets were re-suspended in 5 volumes of membrane preparation buffer and divided into aliquots before freezing at -80°C. Protein concentration was determined using BioRad Protein Assay (Milan, Italy) with a BSA standard curve. Stock solutions of test compounds (10 mM) were prepared in DMSO and stored at -20°C until use. […] The goodness of fit between One-Site and Two-Site models was examined using Akaike's Information Corrected Criteria (AICC; [23]) in SAS v9.4 (SAS Institute, Cary NC) in order to select the best model for the data generated. […] Data from displacement experiments were plotted as the log [inhibitor concentration] (X axis) versus response expressed as TB in cpm (Y axis).

[5] = Intracellular Ca^2+ pEC50, CHO-hNK1 cells, mean ± SD
[6] = NK1 EC50 intracellular calcium response, CHO-hNK1 cells
[7] = Intracellular Ca^2+ pEC50, CHO-hNK2 cells, mean ± SD
[8] = NK2 EC50 intracellular calcium response, CHO-hNK2 cells

| SMILES | Intracellular Ca^2+ % Max [1] [%] | EC50 [1, 5] [nM] | EC50 [1, 6] [nM] | Intracellular Ca^2+ % Max [2] [%] | EC50 [2, 7] [nM] | EC50 [2, 8] [nM] | other results |
| --- | --- | --- | --- | --- | --- | --- | --- |
| CSCC[C@H](NC(=O)[C@H](CC(C)C)NC(=O)CCNC(=O)[C@@H](NC(=O)[C@H](Cc1ccccc1)NC(=O)[C@H](CCCCN)NC(=O)[C@@H](N)CC(=O)O)C(C)C)C(N)=O [[Lys^5,β-Ala^8]-NKA(4–10), Asp-Lys-Phe-Val-[β-Ala]-Leu-Met-NH2] (H-DKFV[βAla]LM-NH2) | 105.8 ± 3.4 | 6.31 | 6.31 | 92.0 ± 3.8 | 0.174 | 0.18 | – |
| CSCC[C@H](NC(=O)[C@H](CC(C)C)NC(=O)CNC(=O)[C@@H](NC(=O)[C@H](Cc1ccccc1)NC(=O)[C@H](CO)NC(=O)[C@@H](N)CC(=O)O)C(C)C)C(N)=O [NKA(4–10), Asp-Ser-Phe-Val-Gly-Leu-Met-NH2] | 117.4 ± 12.8 | – | – | – | 1.02 | 1.02 | Ki ([3]; [^125I]-NKA binding pKi): 2.34 nM |
| CCCC[C@H](NC(=O)[C@H](CC(C)C)NC(=O)CNC(=O)[C@@H](NC(=O)[C@H](Cc1ccccc1)NC(=O)[C@H](CCCNC(=N)N)NC(=O)[C@@H](N)CC(=O)O)C(C)C)C(N)=O [[Arg^5,Nle^10]-NKA(4–10), Asp-Arg-Phe-Val-Gly-Leu-Nle-NH2] (H-DRFVGL[Nle]-NH2) | – | 1.7 | 1.71 | – | 0.2 | 0.2 | – |
| CCCC[C@H](NC(=O)[C@H](CC(C)C)N(C)C(=O)CNC(=O)[C@@H](NC(=O)[C@H](Cc1ccccc1)NC(=O)[C@H](CCCNC(=N)N)NC(=O)[C@@H](N)CC(=O)O)C(C)C)C(N)=O [[Arg^5,MeLeu^9,Nle^10]-NKA(4-10), Asp-Arg-Phe-Val-Gly-(NMe-Leu)-Nle-NH2] (H-DRFVG[NMeL][Nle]-NH2; N-terminus assumed) | – | – | – | – | 0.0832 | – | [^125I]-NKA binding pKi ([3]; 0.1 nM [^125I]-NKA, CHO-hNK2 membranes 6 μg/well, 23°C, 3 h, mean ± SD): 9.23 ± 0.19; [^125I]-NKA binding Slope ([3]; Hill slope of displacement curve, 0.1 nM [^125I]-NKA, 23°C, 3 h, mean ± SD): -0.86 ± 0.09; NK1/NK2 ratio of Ki values ([3]; NK1 [^3H]-Septide Ki / NK2 [^125I]-NKA Ki): 561; Fold more selective for NK2 over septide site of NK1 receptor compared with NKA (binding) ([3]; from Ki ratios): more than 28 fold; [^3H]-Septide binding pKi ([4]; 5.0 nM [^3H]-Septide, CHO-hNK1 membranes 20 μg/well, 23°C, 1 h, mean ± SD): 6.48 ± 0.05; [^3H]-Septide binding Slope ([4]; Hill slope of displacement curve, 5.0 nM [^3H]-Septide, 23°C, 1 h, mean ± SD): -0.89 ± 0.13; Ki ([4]; displacement of [^3H]-Septide binding, read-out: NK1 [^3H]-Septide Ki): 331 nM; Intracellular Ca^2+ % Max ([1]; CHO-hNK1 cells, % of maximal response observed with substance P, mean ± SD): 100.4 ± 1.5%; Intracellular Ca^2+ pEC50 ([1]; CHO-hNK1 cells, mean ± SD): 8.23 ± 0.32; Difference between pEC50 and pKi values ([1]; NK1 receptors, calcium response vs [^3H]-Septide binding): 56 fold; Intracellular Ca^2+ % Max ([2]; CHO-hNK2 cells, % of maximal response observed with NKA, mean ± SD): 89.0 ± 15.5%; NK1/NK2 ratio of EC50s for intracellular calcium response ([2]; NK1 EC50 / NK2 EC50): 70 |
| CSCC[C@H](NC(=O)[C@H](CC(C)C)NC(=O)CNC(=O)[C@@H](NC(=O)[C@H](Cc1ccccc1)NC(=O)[C@H](CCCNC(=N)N)NC(=O)[C@@H](N)CC(=O)O)C(C)C)C(N)=O [[Arg^5]-NKA(4–10), Asp-Arg-Phe-Val-Gly-Leu-Met-NH2] (H-DRFVGLM-NH2) | – | 0.155 | 0.16 | – | 0.191 | 0.19 | – |
| CCCC[C@H](NC(=O)[C@H](CC(C)C)NC(=O)CNC(=O)[C@@H](NC(=O)[C@H](Cc1ccccc1)NC(=O)[C@H](CCCCN)NC(=O)[C@@H](N)CC(=O)O)C(C)C)C(N)=O [[Lys^5,Nle^10]-NKA(4–10), Asp-Lys-Phe-Val-Gly-Leu-Nle-NH2] | – | 2.34 | 2.36 | – | 0.38 | 0.38 | – |
| CCCC[C@H](NC(=O)[C@H](CC(C)C)NC(=O)CCNC(=O)[C@@H](NC(=O)[C@H](Cc1ccccc1)NC(=O)[C@H](CCCCN)NC(=O)[C@@H](N)CC(=O)O)C(C)C)C(N)=O [[Lys^5,β-Ala^8,Nle^10]-NKA(4–10), Asp-Lys-Phe-Val-[β-Ala]-Leu-Nle-NH2] (H-DKFV[βAla]L[Nle]-NH2) | 107.0 ± 14.0 | 77.6 | 78.2 | 83.1 ± 25.5 | 3.02 | 3 | – |
| CSCC[C@H](NC(=O)[C@H](CC(C)C)NC(=O)CNC(=O)[C@@H](NC(=O)[C@H](Cc1ccccc1)NC(=O)[C@H](CCCCN)NC(=O)[C@@H](N)CC(=O)O)C(C)C)C(N)=O [[Lys^5]-NKA(4–10), Asp-Lys-Phe-Val-Gly-Leu-Met-NH2] | – | 0.417 | 0.41 | – | 0.0891 | 0.09 | – |
| CSCC[C@H](NC(=O)[C@H](CC(C)C)NC(=O)CCNC(=O)[C@@H](NC(=O)[C@H](Cc1ccccc1)NC(=O)[C@H](CCCNC(=N)N)NC(=O)[C@@H](N)CC(=O)O)C(C)C)C(N)=O [[Arg^5,β-Ala^8]-NKA(4–10), Asp-Arg-Phe-Val-[β-Ala]-Leu-Met-NH2] (H-DRFV[βAla]LM-NH2) | 101.5 ± 18.4 | 1.82 | 1.83 | 106.9 ± 8.9 | 0.151 | 0.15 | – |
| CCCC[C@H](NC(=O)[C@H](CC(C)C)NC(=O)CCNC(=O)[C@@H](NC(=O)[C@H](Cc1ccccc1)NC(=O)[C@H](CCCNC(=N)N)NC(=O)[C@@H](N)CC(=O)O)C(C)C)C(N)=O [[Arg^5,β-Ala^8,Nle^10]-NKA(4–10), Asp-Arg-Phe-Val-[β-Ala]-Leu-Nle-NH2] (H-DRFV[βAla]L[Nle]-NH2) | 104.9 ± 13.2 | 29.5 | 29.5 | 81.4 ± 1.2 | 1.15 | 1.16 | – |
